Data taken from patent publication US10670605B2, “Cysteine reactive probes and uses thereof” (The Scripps Research Institute, priority 2015, dated 2020).
Blank lines part the entries; values can stand above or below the molecule they belong to.

Legend:
Assay in all cases: Competitive isoTOP-ABPP in situ (fragment-treated cells)
Format in all cases: cell-based
[1] = biological target: T1, cysteines in MDA-MB-231 and Ramos cells (Homo sapiens, UniProt Q9NWA0); conditions: 200 μM, insitu
T1 sequence (Q9NWA0 1-146): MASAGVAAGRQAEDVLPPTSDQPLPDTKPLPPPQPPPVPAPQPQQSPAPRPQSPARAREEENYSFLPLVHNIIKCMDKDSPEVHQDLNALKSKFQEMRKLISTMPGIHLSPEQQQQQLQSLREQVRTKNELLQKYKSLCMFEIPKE

[2] = biological target: cysteines in MDA-MB-231 and Ramos cells (Homo sapiens, UniProt Q9Y6G9); conditions: 200 μM, insitu
Sequence of cysteines in MDA-MB-231 and Ramos cells (Homo sapiens, UniProt Q9Y6G9) (Q9Y6G9 whole entry): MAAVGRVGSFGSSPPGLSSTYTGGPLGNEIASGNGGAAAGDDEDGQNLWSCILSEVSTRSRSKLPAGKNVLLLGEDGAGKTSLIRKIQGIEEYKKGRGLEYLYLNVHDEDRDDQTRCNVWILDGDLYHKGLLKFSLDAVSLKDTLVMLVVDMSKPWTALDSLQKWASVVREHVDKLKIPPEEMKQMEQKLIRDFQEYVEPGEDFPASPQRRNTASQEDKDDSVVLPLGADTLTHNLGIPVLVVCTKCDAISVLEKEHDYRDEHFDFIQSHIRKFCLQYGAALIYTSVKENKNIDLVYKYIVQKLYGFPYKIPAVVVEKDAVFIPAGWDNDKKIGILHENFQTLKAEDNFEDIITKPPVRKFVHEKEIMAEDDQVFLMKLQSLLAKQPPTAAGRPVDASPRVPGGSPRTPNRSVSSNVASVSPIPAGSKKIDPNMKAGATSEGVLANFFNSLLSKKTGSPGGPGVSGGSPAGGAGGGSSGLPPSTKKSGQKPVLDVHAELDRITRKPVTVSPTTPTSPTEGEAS

[3] = biological target: T2, cysteines in MDA-MB-231 and Ramos cells (Homo sapiens, UniProt Q86UY8); conditions: 200 μM, insitu, 231
T2 sequence (Q86UY8 1-548): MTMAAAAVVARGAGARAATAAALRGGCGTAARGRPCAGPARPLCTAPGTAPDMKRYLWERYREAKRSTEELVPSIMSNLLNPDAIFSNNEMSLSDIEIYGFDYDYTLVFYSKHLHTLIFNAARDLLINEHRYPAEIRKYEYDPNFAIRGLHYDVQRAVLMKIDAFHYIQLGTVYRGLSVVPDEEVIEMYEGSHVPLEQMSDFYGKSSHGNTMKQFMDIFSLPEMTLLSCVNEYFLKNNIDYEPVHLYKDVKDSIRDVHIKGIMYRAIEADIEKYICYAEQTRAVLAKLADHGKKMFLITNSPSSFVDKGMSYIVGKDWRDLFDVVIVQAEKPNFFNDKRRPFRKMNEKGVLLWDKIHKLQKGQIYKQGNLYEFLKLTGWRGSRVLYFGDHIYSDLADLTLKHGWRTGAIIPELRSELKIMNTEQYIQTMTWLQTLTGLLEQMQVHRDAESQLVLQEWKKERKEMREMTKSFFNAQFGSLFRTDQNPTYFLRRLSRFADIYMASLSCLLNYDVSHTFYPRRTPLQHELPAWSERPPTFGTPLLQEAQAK

[4] = biological target: cysteines in MDA-MB-231 and Ramos cells (Homo sapiens, UniProt Q13630); conditions: 200 μM, insitu, 231
Sequence of cysteines in MDA-MB-231 and Ramos cells (Homo sapiens, UniProt Q13630) (Q13630 whole entry): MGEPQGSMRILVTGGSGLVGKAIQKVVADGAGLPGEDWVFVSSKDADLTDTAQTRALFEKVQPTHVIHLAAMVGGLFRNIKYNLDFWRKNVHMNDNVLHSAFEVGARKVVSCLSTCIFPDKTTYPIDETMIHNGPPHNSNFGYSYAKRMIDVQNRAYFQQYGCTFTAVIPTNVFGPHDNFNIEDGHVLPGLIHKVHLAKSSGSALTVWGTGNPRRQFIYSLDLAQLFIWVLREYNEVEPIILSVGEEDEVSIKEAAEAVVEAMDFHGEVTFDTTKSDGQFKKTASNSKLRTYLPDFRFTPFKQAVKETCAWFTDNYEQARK

[5] = biological target: T3, cysteines in MDA-MB-231 and Ramos cells (Homo sapiens, UniProt O00244); conditions: 200 μM, insitu
T3 sequence (O00244 1-68): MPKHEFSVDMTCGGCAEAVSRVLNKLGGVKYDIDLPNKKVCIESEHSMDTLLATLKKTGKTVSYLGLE

[6] = biological target: T4, cysteines in MDA-MB-231 and Ramos cells (Homo sapiens, UniProt Q96P48); conditions: 200 μM, insitu
T4 sequence (Q96P48 1-1450): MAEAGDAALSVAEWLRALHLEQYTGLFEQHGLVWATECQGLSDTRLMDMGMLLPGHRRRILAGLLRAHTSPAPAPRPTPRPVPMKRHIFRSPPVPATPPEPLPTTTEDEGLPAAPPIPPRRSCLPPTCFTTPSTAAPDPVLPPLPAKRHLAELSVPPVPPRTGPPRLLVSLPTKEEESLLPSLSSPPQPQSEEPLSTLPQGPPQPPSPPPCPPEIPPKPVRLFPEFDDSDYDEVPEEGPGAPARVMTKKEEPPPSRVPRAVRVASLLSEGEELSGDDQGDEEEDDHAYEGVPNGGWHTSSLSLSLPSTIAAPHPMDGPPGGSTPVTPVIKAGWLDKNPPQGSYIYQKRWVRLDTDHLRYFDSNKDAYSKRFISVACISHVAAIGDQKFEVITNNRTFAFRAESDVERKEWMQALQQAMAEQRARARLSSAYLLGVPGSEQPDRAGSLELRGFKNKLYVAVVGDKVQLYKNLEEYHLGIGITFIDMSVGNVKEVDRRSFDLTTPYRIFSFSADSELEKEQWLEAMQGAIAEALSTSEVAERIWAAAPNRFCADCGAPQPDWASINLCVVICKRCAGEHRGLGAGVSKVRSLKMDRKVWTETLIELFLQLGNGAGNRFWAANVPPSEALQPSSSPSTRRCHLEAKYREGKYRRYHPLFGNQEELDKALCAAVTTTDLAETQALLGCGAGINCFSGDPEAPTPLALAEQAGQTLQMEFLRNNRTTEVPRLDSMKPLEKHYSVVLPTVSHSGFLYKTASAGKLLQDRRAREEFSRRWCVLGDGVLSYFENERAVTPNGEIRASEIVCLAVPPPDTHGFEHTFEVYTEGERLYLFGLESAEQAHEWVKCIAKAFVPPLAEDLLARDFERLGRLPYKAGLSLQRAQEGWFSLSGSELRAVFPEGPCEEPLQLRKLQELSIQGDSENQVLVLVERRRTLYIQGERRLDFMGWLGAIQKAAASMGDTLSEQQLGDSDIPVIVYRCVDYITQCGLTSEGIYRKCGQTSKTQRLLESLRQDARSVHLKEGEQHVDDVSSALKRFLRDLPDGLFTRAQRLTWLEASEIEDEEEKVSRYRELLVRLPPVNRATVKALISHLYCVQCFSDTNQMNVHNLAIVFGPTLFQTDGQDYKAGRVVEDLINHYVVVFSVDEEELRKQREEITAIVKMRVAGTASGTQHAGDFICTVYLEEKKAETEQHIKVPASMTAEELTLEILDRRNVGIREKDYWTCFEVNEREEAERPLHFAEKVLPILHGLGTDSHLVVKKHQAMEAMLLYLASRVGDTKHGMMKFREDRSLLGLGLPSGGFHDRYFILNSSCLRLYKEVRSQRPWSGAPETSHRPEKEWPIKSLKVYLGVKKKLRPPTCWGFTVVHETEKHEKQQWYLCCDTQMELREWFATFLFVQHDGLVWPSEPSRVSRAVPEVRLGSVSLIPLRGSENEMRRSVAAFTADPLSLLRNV

[7] = biological target: cysteines in MDA-MB-231 and Ramos cells (Homo sapiens, UniProt P53634); conditions: 200 μM, insitu, 231
Sequence of cysteines in MDA-MB-231 and Ramos cells (Homo sapiens, UniProt P53634) (P53634 25-463): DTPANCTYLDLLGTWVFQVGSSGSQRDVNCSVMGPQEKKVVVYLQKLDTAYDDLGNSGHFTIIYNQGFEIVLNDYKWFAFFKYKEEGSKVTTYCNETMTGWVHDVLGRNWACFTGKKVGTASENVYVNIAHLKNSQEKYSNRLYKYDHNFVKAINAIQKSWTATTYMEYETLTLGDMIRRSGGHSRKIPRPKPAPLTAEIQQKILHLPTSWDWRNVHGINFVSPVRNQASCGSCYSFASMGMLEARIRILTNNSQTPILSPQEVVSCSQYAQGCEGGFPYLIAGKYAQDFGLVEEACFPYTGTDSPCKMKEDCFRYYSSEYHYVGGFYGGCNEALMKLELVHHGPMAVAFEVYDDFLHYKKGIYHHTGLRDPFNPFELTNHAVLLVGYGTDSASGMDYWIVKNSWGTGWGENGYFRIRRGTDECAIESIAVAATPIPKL

[8] = biological target: T5, cysteines in MDA-MB-231 and Ramos cells (Homo sapiens, UniProt P35754); conditions: 200 μM, insitu
T5 sequence (P35754 1-106): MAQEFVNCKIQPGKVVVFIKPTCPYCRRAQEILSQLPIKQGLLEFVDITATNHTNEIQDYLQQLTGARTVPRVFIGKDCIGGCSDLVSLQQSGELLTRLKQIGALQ

[9] = biological target: cysteines in MDA-MB-231 and Ramos cells (Homo sapiens, UniProt P51610); conditions: 200 μM, insitu, 231
Sequence of cysteines in MDA-MB-231 and Ramos cells (Homo sapiens, UniProt P51610) (P51610 whole entry): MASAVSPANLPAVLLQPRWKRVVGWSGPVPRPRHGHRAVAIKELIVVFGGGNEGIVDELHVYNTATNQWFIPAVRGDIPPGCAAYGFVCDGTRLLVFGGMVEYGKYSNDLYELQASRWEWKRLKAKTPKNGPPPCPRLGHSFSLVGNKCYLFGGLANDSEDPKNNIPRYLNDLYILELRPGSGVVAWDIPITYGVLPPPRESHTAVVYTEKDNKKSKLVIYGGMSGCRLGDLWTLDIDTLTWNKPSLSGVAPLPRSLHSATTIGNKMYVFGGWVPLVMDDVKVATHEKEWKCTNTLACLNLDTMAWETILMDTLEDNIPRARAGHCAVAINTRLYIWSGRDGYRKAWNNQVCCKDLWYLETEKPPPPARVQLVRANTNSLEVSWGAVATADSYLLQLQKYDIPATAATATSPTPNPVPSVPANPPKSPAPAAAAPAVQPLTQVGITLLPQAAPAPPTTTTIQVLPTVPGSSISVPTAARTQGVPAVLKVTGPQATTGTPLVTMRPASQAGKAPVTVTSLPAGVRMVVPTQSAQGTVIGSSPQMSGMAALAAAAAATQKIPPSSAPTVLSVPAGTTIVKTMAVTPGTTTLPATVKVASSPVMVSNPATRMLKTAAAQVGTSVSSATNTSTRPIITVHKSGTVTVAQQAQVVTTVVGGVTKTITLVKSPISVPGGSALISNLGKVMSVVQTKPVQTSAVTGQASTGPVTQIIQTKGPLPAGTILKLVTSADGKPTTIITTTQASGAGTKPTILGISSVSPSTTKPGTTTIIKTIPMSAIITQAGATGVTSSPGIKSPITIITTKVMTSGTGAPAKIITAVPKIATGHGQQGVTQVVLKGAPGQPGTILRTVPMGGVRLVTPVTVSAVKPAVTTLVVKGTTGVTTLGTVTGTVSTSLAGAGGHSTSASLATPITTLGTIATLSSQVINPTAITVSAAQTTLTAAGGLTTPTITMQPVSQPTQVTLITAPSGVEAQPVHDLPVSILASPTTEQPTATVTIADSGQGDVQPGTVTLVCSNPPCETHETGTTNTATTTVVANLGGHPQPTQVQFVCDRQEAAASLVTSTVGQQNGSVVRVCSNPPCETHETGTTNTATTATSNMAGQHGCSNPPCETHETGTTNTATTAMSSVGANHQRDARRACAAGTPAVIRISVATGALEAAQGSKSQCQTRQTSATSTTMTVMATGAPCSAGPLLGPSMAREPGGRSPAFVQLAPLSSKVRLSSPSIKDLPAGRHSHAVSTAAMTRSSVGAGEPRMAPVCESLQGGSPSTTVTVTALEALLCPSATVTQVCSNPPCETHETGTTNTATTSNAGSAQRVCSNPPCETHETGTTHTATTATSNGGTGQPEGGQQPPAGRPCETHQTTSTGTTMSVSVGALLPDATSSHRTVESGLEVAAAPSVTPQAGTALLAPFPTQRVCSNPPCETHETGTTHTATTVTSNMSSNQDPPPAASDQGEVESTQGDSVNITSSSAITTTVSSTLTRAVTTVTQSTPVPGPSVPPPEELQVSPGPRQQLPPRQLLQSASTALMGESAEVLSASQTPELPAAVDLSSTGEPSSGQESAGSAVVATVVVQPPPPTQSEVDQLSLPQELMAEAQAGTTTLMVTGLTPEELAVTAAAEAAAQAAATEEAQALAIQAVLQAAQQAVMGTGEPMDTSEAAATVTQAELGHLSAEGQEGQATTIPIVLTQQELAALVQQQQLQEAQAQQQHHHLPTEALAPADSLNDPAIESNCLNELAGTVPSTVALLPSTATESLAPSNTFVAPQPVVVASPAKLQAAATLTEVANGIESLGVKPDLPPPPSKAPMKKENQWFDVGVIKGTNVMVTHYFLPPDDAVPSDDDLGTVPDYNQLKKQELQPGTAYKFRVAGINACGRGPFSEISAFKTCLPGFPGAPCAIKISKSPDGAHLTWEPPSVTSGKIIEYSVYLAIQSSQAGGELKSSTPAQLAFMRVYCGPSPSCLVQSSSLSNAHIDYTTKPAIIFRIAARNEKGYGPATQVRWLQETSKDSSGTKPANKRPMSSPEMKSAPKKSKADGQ

isoTOP-ABPP ratio, cysteine Q9NWA0_C139 [1]; 231: 1.5
isoTOP-ABPP ratio Q9Y6G9_C51 [2]; 231: 0.6
isoTOP-ABPP ratio Q86UY8_C276 [3]: 1.8
isoTOP-ABPP ratio, cysteine Q13630_C116 [4]: 0.8
isoTOP-ABPP ratio, cysteine O00244_C12 [5]; 231: 0.7
isoTOP-ABPP ratio, cysteine Q96P48_C900 [6]; 231: 0.7
isoTOP-ABPP ratio, cysteine P53634_C258 [7]: 2.8
SMILES: O=C(CCl)NC12CC3CC(CC(C3)C1)C2 [compound 21]

isoTOP-ABPP ratio Q9NWA0_C139 [1]; 231: 1.3
isoTOP-ABPP ratio Q9Y6G9_C51 [2]; 231: 0.6
isoTOP-ABPP ratio Q86UY8_C276 [3]: 1.7
isoTOP-ABPP ratio O00244_C12 [5]; 231: 0.4
isoTOP-ABPP ratio P35754_C23 [8]; 231: 0.7
SMILES: CC(C)CCOCCNC(=O)CCl [compound 27]

isoTOP-ABPP ratio Q9Y6G9_C51 [2]; 231: 0.7
isoTOP-ABPP ratio P35754_C23 [8]; 231: 1.4
SMILES: COc1ccccc1OCCNC(=O)CCl [compound 28]

isoTOP-ABPP ratio Q9NWA0_C139 ([1]; ramos): 0.7
isoTOP-ABPP ratio O00244_C12 ([5]; ramos): 1.4
isoTOP-ABPP ratio Q96P48_C900 ([6]; ramos): 1.1
SMILES: O=C(CCl)N1CCN(CC(=O)N2CCOCC2)CC1 [compound 29]

isoTOP-ABPP ratio Q9Y6G9_C51 ([2]; ramos): 1.6
isoTOP-ABPP ratio P35754_C23 [8]; 231: 0.6
isoTOP-ABPP ratio P35754_C23 ([8]; ramos): 1.1
isoTOP-ABPP ratio Q96P48_C900 [6]; 231: 1.1
SMILES: C=CC(=O)N(Cc1cccnc1)c1cc(C(F)(F)F)cc(C(F)(F)F)c1 [compound 31]

isoTOP-ABPP ratio P35754_C23 [8]; 231: 0.9
isoTOP-ABPP ratio P51610_C1872 [9]: 1.3
SMILES: C=CC(=O)Nc1cc(F)c(N2CCN(C(=O)OC(C)(C)C)CC2)c(F)c1 [compound 38]

isoTOP-ABPP ratio Q9NWA0_C139 [1]; 231: 0.8
isoTOP-ABPP ratio Q9Y6G9_C51 [2]; 231: 0.7
isoTOP-ABPP ratio Q86UY8_C276 [3]: 1.7
isoTOP-ABPP ratio P35754_C23 [8]; 231: 0.5
isoTOP-ABPP ratio P51610_C1872 [9]: 0.5
isoTOP-ABPP ratio Q96P48_C900 [6]; 231: 0.5
SMILES: Cc1ccc(C=C(C#N)C(=O)NCCN2CCOCC2)cc1 [compound 41]

isoTOP-ABPP ratio Q86UY8_C276 [3]: 2.1
isoTOP-ABPP ratio Q13630_C116 [4]: 20.0
isoTOP-ABPP ratio P35754_C23 [8]; 231: 16.3
SMILES: CC1CCc2ccccc2N1C(=O)CCl (stereo not drawn) [compound 45]

isoTOP-ABPP ratio Q86UY8_C276 [3]: 1.2
SMILES: O=C(CCl)Nc1cccc2ncccc12 [compound 51]
